According to ChEMBL document CHEMBL1201862, “PubChem BioAssay data set” (2004):
Active and inactive are the calls of the source.

Key:
[1] = target: Lysosomal acid glucosylceramidase (Homo sapiens, UniProt P04062); experiment: Dose response cell-based high throughput screening assay to identify enhancers of beta-glucosidase activity. [Related pubchem assays: 784 ]; format: functional
Procathepsin L = Procathepsin L (Homo sapiens, UniProt P07711)
Aspartyl aminopeptidase = target: T1, Aspartyl aminopeptidase (Plasmodium falciparum 3D7, UniProt Q8I2J3)
T1 sequence (Q8I2J3 whole entry): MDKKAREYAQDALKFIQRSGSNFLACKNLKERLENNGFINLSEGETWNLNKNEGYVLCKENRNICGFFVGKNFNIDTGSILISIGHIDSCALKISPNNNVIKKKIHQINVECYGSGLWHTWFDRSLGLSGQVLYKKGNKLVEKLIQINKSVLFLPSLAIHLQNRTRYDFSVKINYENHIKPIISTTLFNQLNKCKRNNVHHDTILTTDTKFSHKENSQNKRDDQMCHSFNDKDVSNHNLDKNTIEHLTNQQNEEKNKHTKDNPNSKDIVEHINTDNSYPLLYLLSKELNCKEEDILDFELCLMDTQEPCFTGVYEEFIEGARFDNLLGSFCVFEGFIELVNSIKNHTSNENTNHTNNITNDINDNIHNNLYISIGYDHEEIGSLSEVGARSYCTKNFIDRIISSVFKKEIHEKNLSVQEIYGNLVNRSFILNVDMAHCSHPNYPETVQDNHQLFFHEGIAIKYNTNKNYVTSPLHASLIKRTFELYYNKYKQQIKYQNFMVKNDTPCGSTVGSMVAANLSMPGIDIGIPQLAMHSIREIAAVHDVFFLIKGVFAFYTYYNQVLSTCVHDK

Cytochrome P450 2C9 = Cytochrome P450 2C9 (Homo sapiens, UniProt P11712); conditions: Potency
Chain of Cytochrome P450 2C9 (P11712 whole entry): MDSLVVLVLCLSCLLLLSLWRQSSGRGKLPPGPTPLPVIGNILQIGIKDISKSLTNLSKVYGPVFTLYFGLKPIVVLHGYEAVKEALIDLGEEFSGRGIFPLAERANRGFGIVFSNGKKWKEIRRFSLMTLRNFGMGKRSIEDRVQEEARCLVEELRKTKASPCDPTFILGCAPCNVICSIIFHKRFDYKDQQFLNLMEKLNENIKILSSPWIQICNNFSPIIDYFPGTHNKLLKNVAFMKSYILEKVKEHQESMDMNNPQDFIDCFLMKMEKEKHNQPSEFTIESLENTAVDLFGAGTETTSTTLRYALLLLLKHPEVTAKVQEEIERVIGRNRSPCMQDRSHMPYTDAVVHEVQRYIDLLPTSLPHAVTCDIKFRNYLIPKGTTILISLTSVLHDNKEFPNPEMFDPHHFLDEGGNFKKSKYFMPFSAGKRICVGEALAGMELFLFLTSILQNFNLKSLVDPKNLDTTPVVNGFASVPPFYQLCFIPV

[2] = target: T2, Eukaryotic translation initiation factor 2-alpha kinase 3 (Homo sapiens, UniProt Q9NZJ5); experiment: Counterscreen assay for PERK inhibitors: Dose response cell-based high throughput screening assay to measure inhibition of PERK at 6 hours. [Related pubchem assays: 1522, 1416 ]; format: functional
T2 sequence (Q9NZJ5 whole entry): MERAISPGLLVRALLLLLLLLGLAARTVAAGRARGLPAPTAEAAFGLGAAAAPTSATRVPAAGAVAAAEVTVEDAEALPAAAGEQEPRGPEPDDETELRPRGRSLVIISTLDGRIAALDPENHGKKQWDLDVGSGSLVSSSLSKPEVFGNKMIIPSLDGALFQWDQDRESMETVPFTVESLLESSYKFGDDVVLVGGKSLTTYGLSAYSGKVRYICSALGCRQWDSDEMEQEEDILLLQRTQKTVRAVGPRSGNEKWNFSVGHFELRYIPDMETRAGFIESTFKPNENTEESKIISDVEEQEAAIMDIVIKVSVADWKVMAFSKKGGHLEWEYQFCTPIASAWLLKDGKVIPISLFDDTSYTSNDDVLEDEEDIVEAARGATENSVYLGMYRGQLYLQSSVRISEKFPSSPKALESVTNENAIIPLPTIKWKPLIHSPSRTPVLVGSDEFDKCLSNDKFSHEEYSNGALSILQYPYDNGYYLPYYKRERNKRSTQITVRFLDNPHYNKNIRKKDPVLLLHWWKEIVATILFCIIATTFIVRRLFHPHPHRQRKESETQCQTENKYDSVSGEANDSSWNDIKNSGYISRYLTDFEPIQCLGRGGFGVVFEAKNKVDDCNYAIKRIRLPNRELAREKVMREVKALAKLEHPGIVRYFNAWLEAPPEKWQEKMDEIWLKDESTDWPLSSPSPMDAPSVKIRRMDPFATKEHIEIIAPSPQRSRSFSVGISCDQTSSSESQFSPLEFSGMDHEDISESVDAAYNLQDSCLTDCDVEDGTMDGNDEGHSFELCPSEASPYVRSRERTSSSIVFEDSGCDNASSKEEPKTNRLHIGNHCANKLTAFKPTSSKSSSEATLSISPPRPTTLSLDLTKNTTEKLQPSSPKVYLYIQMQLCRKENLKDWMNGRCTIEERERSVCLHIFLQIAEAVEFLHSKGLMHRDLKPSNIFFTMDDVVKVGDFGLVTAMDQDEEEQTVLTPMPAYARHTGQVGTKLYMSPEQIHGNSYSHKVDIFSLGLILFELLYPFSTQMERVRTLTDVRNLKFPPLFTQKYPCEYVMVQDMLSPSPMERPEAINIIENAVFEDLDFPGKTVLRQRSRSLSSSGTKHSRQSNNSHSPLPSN

[3] = target: T2, Eukaryotic translation initiation factor 2-alpha kinase 3; experiment: Dose response cell-based high-throughput screening assay to measure PERK inhibition. [Related pubchem assays: 1416 ]; format: functional
Insulin-degrading enzyme = target: T3, Insulin-degrading enzyme (Homo sapiens, UniProt P14735); experiment: Dose Response: Fluorescence polarization-based cell-based high throughput dose response assay for inhibitors of insulin-degrading enzyme (IDE). [Related pubchem assays: 434962 (Primary screen (IDE inhibitors in singlicate)), 449730 (Counterscreen (Cytotoxicity in triplicate)), 435028 (Confirmation (IDE inhibitors in triplicate)), 434984 (Summary …; format: functional
T3 sequence (P14735 whole entry): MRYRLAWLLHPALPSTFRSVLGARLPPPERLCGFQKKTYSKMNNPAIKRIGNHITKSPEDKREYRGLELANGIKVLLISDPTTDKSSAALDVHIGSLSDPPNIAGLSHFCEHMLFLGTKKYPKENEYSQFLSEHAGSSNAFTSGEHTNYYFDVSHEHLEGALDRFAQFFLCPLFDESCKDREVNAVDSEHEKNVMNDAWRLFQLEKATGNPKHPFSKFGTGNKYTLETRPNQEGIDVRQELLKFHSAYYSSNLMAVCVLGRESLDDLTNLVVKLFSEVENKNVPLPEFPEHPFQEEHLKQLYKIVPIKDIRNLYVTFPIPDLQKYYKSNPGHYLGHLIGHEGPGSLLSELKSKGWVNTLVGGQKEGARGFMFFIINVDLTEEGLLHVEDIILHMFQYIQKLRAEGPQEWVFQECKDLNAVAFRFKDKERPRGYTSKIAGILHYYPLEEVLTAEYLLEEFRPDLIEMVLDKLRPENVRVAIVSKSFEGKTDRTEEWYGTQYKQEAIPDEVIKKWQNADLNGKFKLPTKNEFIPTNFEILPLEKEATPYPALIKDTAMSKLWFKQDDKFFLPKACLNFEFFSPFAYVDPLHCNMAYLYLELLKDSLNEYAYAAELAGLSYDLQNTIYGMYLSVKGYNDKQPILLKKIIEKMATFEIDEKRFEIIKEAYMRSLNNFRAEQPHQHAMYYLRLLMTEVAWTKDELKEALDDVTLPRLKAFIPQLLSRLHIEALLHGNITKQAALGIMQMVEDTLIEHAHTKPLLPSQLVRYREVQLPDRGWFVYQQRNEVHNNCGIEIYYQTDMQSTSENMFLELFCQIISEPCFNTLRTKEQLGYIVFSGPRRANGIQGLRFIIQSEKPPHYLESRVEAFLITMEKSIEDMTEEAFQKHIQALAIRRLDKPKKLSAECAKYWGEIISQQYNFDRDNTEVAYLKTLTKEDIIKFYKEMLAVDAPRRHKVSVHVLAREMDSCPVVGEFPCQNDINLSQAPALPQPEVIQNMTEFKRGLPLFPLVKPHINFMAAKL

[4] = Counterscreen for IDE inhibitors: Luminescence-based cell-based high throughput dose response assay to identify compounds that are cytotoxic to HEK cells. [Related pubchem assays: 434962 (Primary screen (IDE inhibitors in singlicate)), 449730 (Counterscreen (Cytotoxicity in triplicate)), 435028 (Confirmation (IDE inhibitors in triplicate)) …; format: functional; conditions: HEK293
Large T antigen = Large T antigen (Simian virus 40, UniProt P03070); format: functional, Betapolyomavirus macacae;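 also: Confirmatory-stage PubChem screen for compounds that inhibit SV40 T antigen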
Chain of Large T antigen (P03070 whole entry): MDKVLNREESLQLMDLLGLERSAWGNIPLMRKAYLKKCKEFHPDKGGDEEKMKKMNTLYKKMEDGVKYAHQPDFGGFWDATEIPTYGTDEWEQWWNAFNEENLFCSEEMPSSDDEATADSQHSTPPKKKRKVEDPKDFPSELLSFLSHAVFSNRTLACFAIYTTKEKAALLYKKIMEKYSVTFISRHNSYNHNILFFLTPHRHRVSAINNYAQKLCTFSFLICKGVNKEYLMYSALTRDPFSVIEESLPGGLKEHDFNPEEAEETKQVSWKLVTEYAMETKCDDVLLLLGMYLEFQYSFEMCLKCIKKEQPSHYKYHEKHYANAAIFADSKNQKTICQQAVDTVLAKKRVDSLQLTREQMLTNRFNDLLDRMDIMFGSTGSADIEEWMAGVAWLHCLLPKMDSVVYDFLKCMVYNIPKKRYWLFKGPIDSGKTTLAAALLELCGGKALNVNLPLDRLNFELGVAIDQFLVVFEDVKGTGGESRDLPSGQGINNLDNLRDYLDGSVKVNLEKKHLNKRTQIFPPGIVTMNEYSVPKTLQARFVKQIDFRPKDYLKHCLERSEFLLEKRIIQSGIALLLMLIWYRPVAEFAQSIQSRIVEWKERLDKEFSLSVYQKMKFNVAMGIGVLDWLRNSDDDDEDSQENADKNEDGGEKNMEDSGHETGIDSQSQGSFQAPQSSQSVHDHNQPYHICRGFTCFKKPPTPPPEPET

[5] = target: T4, Calpain-2 catalytic subunit (Sus scrofa, UniProt P43367); experiment: m-calpain protease blockers, concentration series – biochemical, fluorogenic peptide substrate, dose response (AID 1420); format: functional
T4 sequence (P43367 whole entry): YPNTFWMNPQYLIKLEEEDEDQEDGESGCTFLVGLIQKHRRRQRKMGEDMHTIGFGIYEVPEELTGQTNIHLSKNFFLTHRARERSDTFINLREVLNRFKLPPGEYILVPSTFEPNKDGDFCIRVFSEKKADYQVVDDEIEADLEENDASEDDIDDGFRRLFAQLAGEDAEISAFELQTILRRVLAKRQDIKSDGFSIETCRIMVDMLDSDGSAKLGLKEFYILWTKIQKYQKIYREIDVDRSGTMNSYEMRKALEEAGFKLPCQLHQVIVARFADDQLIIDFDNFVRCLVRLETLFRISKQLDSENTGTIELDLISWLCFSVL

[6] = target: T5, Histone-lysine N-methyltransferase NSD2 (Homo sapiens, UniProt O96028); format: biochemical
T5 sequence (O96028 whole entry): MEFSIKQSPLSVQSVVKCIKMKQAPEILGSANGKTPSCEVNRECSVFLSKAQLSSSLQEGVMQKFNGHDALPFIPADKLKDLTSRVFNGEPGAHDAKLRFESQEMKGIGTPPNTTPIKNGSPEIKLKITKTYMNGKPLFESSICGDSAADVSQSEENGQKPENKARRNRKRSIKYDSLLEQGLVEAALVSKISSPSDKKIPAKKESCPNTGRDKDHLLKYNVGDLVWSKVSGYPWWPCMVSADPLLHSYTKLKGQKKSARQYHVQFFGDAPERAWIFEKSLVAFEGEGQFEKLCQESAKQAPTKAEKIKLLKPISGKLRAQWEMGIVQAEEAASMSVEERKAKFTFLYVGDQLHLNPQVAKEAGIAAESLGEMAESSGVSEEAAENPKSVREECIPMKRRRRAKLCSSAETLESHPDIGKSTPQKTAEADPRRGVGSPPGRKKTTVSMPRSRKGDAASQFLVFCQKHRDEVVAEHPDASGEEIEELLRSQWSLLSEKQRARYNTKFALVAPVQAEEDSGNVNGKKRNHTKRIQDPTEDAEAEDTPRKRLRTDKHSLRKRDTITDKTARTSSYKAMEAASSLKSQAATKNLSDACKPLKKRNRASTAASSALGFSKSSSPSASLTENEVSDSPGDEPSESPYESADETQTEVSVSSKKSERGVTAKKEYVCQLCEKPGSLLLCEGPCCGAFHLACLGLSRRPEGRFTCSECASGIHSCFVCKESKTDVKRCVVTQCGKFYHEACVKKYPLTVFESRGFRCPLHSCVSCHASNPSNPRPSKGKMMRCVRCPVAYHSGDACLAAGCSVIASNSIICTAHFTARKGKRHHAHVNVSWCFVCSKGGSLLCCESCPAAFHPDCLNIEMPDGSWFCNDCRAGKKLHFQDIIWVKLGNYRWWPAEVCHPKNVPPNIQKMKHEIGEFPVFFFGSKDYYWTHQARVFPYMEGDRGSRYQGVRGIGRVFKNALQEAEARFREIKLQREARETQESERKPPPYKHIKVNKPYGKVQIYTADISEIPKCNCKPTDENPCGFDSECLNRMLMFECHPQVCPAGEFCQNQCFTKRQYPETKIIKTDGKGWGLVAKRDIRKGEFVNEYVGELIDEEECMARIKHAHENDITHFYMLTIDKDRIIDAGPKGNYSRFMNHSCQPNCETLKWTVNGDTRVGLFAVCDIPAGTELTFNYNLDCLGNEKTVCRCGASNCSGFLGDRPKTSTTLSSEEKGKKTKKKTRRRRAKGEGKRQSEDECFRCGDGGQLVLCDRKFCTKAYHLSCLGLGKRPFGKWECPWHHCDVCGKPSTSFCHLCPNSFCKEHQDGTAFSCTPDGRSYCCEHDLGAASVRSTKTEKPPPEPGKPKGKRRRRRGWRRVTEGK

[7] = luciferase reporter signal suppression in cells – H4 neuroglioma cells, luminescence, dose response (AID 1990); format: functional, cell-based
[8] = luciferase reporter signal reduction – luminescence, H4-C neuroglioblastoma cells, dose response (AID 2458); format: functional, cell-based;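 also: H4 neuroglioblastoma cells stably carrying a luciferase reporter gene fusion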
[9] = alpha-synuclein stem-loop luciferase translation blockers – H4 neuroglioma cells, luminescence, confirmation (AID 1988); format: functional, cell-based
cells = format: functional, cell-based
[10] = Luminescence Cell-Based Dose Response HTS to Identify Inhibitors of 5'UTR Stem-Loop Driven Prion Protein mRNA Translation in H4 Neuroglioblastoma Cells. [Related pubchem assays: 1827 (Project Summary), 1813 (Primary HTS)]; format: functional
[11] = alpha-synuclein stem-loop translation blockers – luminescence, H4 neuroglioblastoma cells, dose confirmation, confirmation (AID 2454); format: functional, cell-based;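 also: H4 neuroglioblastoma cells carrying an alpha-synuclein 5'UTR luciferase reporter; potency for inhibition of the luciferase signal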
[12] = HEK-293T viability loss after treatment – luminescence, T-cell screen hits, cytotoxicity control for TCR NF-kB inhibitor project, dose response (AID 489026); format: functional, cell-based;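 also: cells exposed to compound about 14 hours before the viability readout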

Chain of Lysosomal acid glucosylceramidase (P04062 whole entry): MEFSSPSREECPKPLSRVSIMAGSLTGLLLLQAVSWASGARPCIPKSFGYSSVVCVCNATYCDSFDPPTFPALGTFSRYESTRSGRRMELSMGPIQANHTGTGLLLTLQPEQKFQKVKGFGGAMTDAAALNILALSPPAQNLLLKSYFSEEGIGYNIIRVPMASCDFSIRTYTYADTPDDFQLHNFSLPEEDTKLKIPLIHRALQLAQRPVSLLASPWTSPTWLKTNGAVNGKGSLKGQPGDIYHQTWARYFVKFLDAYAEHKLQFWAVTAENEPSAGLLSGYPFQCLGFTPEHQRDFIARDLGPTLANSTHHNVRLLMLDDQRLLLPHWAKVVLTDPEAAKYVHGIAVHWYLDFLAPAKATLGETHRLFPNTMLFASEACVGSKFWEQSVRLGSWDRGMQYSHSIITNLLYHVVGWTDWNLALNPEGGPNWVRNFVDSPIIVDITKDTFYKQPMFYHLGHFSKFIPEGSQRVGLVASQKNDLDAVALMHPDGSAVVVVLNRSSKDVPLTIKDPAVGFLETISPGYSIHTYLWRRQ
Chain of Procathepsin L (P07711 whole entry): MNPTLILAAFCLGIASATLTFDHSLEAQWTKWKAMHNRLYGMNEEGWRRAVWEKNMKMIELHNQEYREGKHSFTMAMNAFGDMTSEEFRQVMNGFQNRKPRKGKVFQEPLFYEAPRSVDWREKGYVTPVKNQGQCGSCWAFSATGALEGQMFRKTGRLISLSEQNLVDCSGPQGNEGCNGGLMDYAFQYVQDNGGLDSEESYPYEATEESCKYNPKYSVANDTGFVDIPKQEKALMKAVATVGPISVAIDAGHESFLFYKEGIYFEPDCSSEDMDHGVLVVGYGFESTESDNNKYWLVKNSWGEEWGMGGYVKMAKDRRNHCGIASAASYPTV

For Cc1cccn2c(=O)c3cc(C(=O)NCCCn4ccnc4)n(C)c3nc12, the EC50 [1] was > 10 µM (not active).

With O=C1/C(=C/Nn2cnnc2)c2ccccc2C(=O)N1c1ccccc1 the IC50 (Procathepsin L) was > 59.6 µM (not active) and the IC50 (Aspartyl aminopeptidase) was 1.86 µM (active).

In the case of C=C(C)C(O)/C=C/c1ccc(C)cc1 (configuration not stated), the AC50 (Cytochrome P450 2C9) is reported as 3.16 µM (inconclusive).

In the case of Cc1ccc2cc(/C=N/Nc3nc4ccccc4[nH]3)c(Cl)nc2c1, the EC50 [2] is reported as > 55.7 µM (not active) and the EC50 [3] is reported as > 55.7 µM (not active).

With COC(=O)CN(n1cnnc1)S(=O)(=O)c1ccccc1Cl the IC50 (Procathepsin L) was > 59.6 µM (not active) and the IC50 (Aspartyl aminopeptidase) was 0.381 µM (active).

With CC(C)C[C@@H](CC(=O)N[C@@H](CCCN)CC(=O)N[C@@H]1CCNC[C@H]1C(=O)N[C@H](CC(=O)N[C@@H](CCC(=O)O)CC(=O)O)Cc1c[nH]c2ccccc12)NC(=O)[C@@H]1CCCC[C@H]1N the AC50 (Cytochrome P450 2C9) was 31.6 µM (inconclusive).

For CN1CCC/C1=C/C=C1\SC(=S)NC1=O, the IC50 (Insulin-degrading enzyme) was 8.16 µM (active), the IC50 [4] was > 55.6 µM (not active) and the IC50 (Large T antigen) was 30.2 µM (active). For the same compound, the IC50 [5] was 13.4 µM (not active) and the AC50 [6] was > 20 µM (inactive).

For CC1=C([N+](=O)[O-])C(c2ccccc2)C2=C(O)c3ccccc3C2=N1 (configuration not stated), the EC50 [7] was 7.36 µM (active), the EC50 [8] was > 12 µM (not active) and the EC50 [9] was < 0.1 µM (active). For the same compound, the EC50 (cells) was > 12 µM (not active), the EC50 [10] was 4.95 µM (active) and the EC50 [11] was 4.09 µM (active). For the same compound, the IC50 [12] was 58.8 µM (inactive).

In the case of CCOC(=O)N1CCN(C(=O)c2ccc3c(=O)n(Cc4ccccc4)c(=S)[nH]c3c2)CC1, the EC50 [1] is reported as > 10 µM (not active).
